{"source": "ChEMBL document CHEMBL1201862", "about": "“PubChem BioAssay data set” (2004)", "assay_in_all_cases": "NCI tumour cell line growth inhibition, 48 h", "key": {"PC-3": {"tested_on": "PC-3"}, "UO-31": {"tested_on": "UO-31"}, "SK-OV-3": {"tested_on": "SK-OV-3"}, "Malme-3M": {"tested_on": "Malme-3M"}, "KM-20L2": {"tested_on": "KM-20L2"}, "NCI-H226": {"tested_on": "NCI-H226"}, "SW-620": {"tested_on": "SW-620"}, "HOP-92": {"tested_on": "HOP-92"}, "HCT-15": {"tested_on": "HCT-15"}, "CAKI-1": {"tested_on": "CAKI-1"}, "OVCAR-5": {"tested_on": "OVCAR-5"}, "XF498": {"tested_on": "XF498"}, "KM12": {"tested_on": "KM12"}, "OVCAR-4": {"tested_on": "OVCAR-4"}, "NCI-H522": {"tested_on": "NCI-H522"}, "NCI-H23": {"tested_on": "NCI-H23"}, "SF-295": {"tested_on": "SF-295"}, "ACHN": {"tested_on": "ACHN"}, "IGROV-1": {"tested_on": "IGROV-1"}, "HCC 2998": {"tested_on": "HCC 2998"}, "SK-MEL-2": {"tested_on": "SK-MEL-2"}, "SF-539": {"tested_on": "SF-539"}, "LOX IMVI": {"tested_on": "LOX IMVI"}, "CCRF-CEM": {"tested_on": "CCRF-CEM"}, "SK-MEL-28": {"tested_on": "SK-MEL-28"}, "RXF 393": {"tested_on": "RXF 393"}, "A549": {"tested_on": "A549"}, "HOP-18": {"tested_on": "HOP-18"}, "786-0": {"tested_on": "786-0"}, "SNB-75": {"tested_on": "SNB-75"}, "NCI-H460": {"tested_on": "NCI-H460"}, "UACC-257": {"tested_on": "UACC-257"}, "DU-145": {"tested_on": "DU-145"}, "HT-29": {"tested_on": "HT-29"}, "NCI/ADR-RES": {"tested_on": "NCI/ADR-RES"}, "SNB-78": {"tested_on": "SNB-78"}, "K562": {"tested_on": "K562"}, "MDA-N": {"tested_on": "MDA-N"}, "M19-MEL": {"tested_on": "M19-MEL"}, "DMS-114": {"tested_on": "DMS-114"}, "T47D": {"tested_on": "T47D"}, "DMS-273": {"tested_on": "DMS-273"}, "DLD-1": {"tested_on": "DLD-1"}, "MCF7": {"tested_on": "MCF7"}, "MDA-MB-435": {"tested_on": "MDA-MB-435"}, "COLO 205": {"tested_on": "COLO 205"}, "HCT-116": {"tested_on": "HCT-116"}, "Hs-578T": {"tested_on": "Hs-578T"}, "SR": {"tested_on": "SR"}, "UACC-62": {"tested_on": "UACC-62"}, "SNB-19": {"tested_on": "SNB-19"}, "RPMI-8226": {"tested_on": "RPMI-8226"}, "EKVX": {"tested_on": "EKVX"}, "OVCAR-3": {"tested_on": "OVCAR-3"}, "HOP-62": {"tested_on": "HOP-62"}, "SF-268": {"tested_on": "SF-268"}, "MOLT-4": {"tested_on": "MOLT-4"}, "M14": {"tested_on": "M14"}, "MDA-MB-231": {"tested_on": "MDA-MB-231"}, "HL-60": {"tested_on": "HL-60"}, "OVCAR-8": {"tested_on": "OVCAR-8"}, "SN12C": {"tested_on": "SN12C"}, "A498": {"tested_on": "A498"}, "SK-MEL-5": {"tested_on": "SK-MEL-5"}, "BT-549": {"tested_on": "BT-549"}, "U-251": {"tested_on": "U-251"}, "TK-10": {"tested_on": "TK-10"}}, "note": "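Interpolation was linear, between the two tested concentrations surrounding the appropriate level; five concentrations were tested over 48 hours in 96-well plates. The concentration for 50% growth inhibition is given as GI50.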 Activity calls are given as the source filed them. No stated cut-off is given here; in the data, active = GI50 up to about 1.1 µM and inactive = higher.", "data": [{"smiles": "Nc1nncs1", "values": [{"measurement": "GI50", "setting": "PC-3", "result": "2610 µM (inactive)"}, {"measurement": "GI50", "setting": "UO-31", "result": "3530 µM (inactive)"}, {"measurement": "GI50", "setting": "SK-OV-3", "result": "151 µM (inactive)"}, {"measurement": "GI50", "setting": "Malme-3M", "result": "3590 µM (inactive)"}, {"measurement": "GI50", "setting": "KM-20L2", "result": "301 µM (inactive)"}, {"measurement": "GI50", "setting": "NCI-H226", "result": "3480 µM (inactive)"}, {"measurement": "GI50", "setting": "SW-620", "result": "1260 µM (inactive)"}, {"measurement": "GI50", "setting": "HOP-92", "result": "2260 µM (inactive)"}, {"measurement": "GI50", "setting": "HCT-15", "result": 853, "unit": "µM"}, {"measurement": "GI50", "setting": "CAKI-1", "result": "1760 µM (inactive)"}, {"measurement": "GI50", "setting": "OVCAR-5", "result": "1870 µM (inactive)"}, {"measurement": "GI50", "setting": "XF498", "result": "879 µM (inactive)"}, {"measurement": "GI50", "setting": "KM12", "result": "1940 µM (inactive)"}, {"measurement": "GI50", "setting": "OVCAR-4", "result": "853 µM (inactive)"}, {"measurement": "GI50", "setting": "NCI-H522", "result": "1210 µM (inactive)"}, {"measurement": "GI50", "setting": "NCI-H23", "result": "1640 µM (inactive)"}, {"measurement": "GI50", "setting": "SF-295", "result": "2760 µM (inactive)"}, {"measurement": "GI50", "setting": "ACHN", "result": "1520 µM (inactive)"}, {"measurement": "GI50", "setting": "IGROV-1", "result": "2580 µM (inactive)"}, {"measurement": "GI50", "setting": "HCC 2998", "result": "2160 µM (inactive)"}, {"measurement": "GI50", "setting": "SK-MEL-2", "result": "> 5000 µM (inactive)"}, {"measurement": "GI50", "setting": "SF-539", "result": "3560 µM (inactive)"}, {"measurement": "GI50", "setting": "LOX IMVI", "result": "1450 µM (inactive)"}, {"measurement": "GI50", "setting": "CCRF-CEM", "result": "1010 µM (inactive)"}, {"measurement": "GI50", "setting": "SK-MEL-28", "result": "1980 µM (inactive)"}, {"measurement": "GI50", "setting": "RXF 393", "result": "2930 µM (inactive)"}, {"measurement": "GI50", "setting": "A549", "result": "942 µM (inactive)"}, {"measurement": "GI50", "setting": "HOP-18", "result": "3030 µM (inactive)"}, {"measurement": "GI50", "setting": "786-0", "result": "4080 µM (inactive)"}, {"measurement": "GI50", "setting": "SNB-75", "result": "1440 µM (inactive)"}, {"measurement": "GI50", "setting": "NCI-H460", "result": "692 µM (inactive)"}, {"measurement": "GI50", "setting": "UACC-257", "result": "705 µM (inactive)"}, {"measurement": "GI50", "setting": "DU-145", "result": "2070 µM (inactive)"}, {"measurement": "GI50", "setting": "HT-29", "result": "211 µM (inactive)"}, {"measurement": "GI50", "setting": "NCI/ADR-RES", "result": "1510 µM (inactive)"}, {"measurement": "GI50", "setting": "SNB-78", "result": "3240 µM (inactive)"}, {"measurement": "GI50", "setting": "K562", "result": "1320 µM (inactive)"}, {"measurement": "GI50", "setting": "MDA-N", "result": "1950 µM (inactive)"}, {"measurement": "GI50", "setting": "M19-MEL", "result": "1090 µM (inactive)"}, {"measurement": "GI50", "setting": "DMS-114", "result": "1960 µM (inactive)"}, {"measurement": "GI50", "setting": "T47D", "result": "> 3040 µM (inactive)"}, {"measurement": "GI50", "setting": "DMS-273", "result": "450 µM (inactive)"}, {"measurement": "GI50", "setting": "DLD-1", "result": "641 µM (inactive)"}, {"measurement": "GI50", "setting": "MCF7", "result": "2480 µM (inactive)"}, {"measurement": "GI50", "setting": "MDA-MB-435", "result": "1630 µM (inactive)"}, {"measurement": "GI50", "setting": "COLO 205", "result": "456 µM (inactive)"}, {"measurement": "GI50", "setting": "HCT-116", "result": "1500 µM (inactive)"}, {"measurement": "GI50", "setting": "Hs-578T", "result": "1620 µM (inactive)"}, {"measurement": "GI50", "setting": "SR", "result": "2000 µM (inactive)"}, {"measurement": "GI50", "setting": "UACC-62", "result": "1910 µM (inactive)"}, {"measurement": "GI50", "setting": "SNB-19", "result": "3730 µM (inactive)"}, {"measurement": "GI50", "setting": "RPMI-8226", "result": "991 µM (inactive)"}, {"measurement": "GI50", "setting": "EKVX", "result": "1320 µM (inactive)"}, {"measurement": "GI50", "setting": "OVCAR-3", "result": "2400 µM (inactive)"}, {"measurement": "GI50", "setting": "HOP-62", "result": "724 µM (inactive)"}, {"measurement": "GI50", "setting": "SF-268", "result": "3950 µM (inactive)"}, {"measurement": "GI50", "setting": "MOLT-4", "result": "695 µM (inactive)"}, {"measurement": "GI50", "setting": "M14", "result": "1580 µM (inactive)"}, {"measurement": "GI50", "setting": "MDA-MB-231", "result": "2320 µM (inactive)"}, {"measurement": "GI50", "setting": "HL-60", "result": "2080 µM (inactive)"}, {"measurement": "GI50", "setting": "OVCAR-8", "result": "1910 µM (inactive)"}, {"measurement": "GI50", "setting": "SN12C", "result": "3040 µM (inactive)"}, {"measurement": "GI50", "setting": "A498", "result": "867 µM (inactive)"}, {"measurement": "GI50", "setting": "SK-MEL-5", "result": "2360 µM (inactive)"}, {"measurement": "GI50", "setting": "BT-549", "result": "1940 µM (inactive)"}, {"measurement": "GI50", "setting": "U-251", "result": "3100 µM (inactive)"}, {"measurement": "GI50", "setting": "TK-10", "result": "> 5000 µM (inactive)"}]}]}
